Some test systems named below: SF-295 CNS; RPMI-8226 leukemia; SK-MEL-28 melanoma; SN12C renal; KM12 colon; TK-10 renal; HCT-116 colon; SNB-75 CNS; SK-OV-3 ovarian; HL-60(TB) leukemia.
Common to all, as to experiment: NCI-60 cell line screen, 48 h

Values joined by “and” are separate entries in the source; they are usually repeats but may differ in a detail not shown here. Equal values may be shown once.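 The compound was tested at five concentrations on cells cultured in 96-well plates, with a 48-hour exposure period. Abbreviation: GI50, concentration required for 50% inhibition of growth. At the TGI there is no net growth.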

The record followed here is PubChem BioAssay (NCI).

Take `C[CH2][Sn]([Cl])([CH2]C)[CH2]C`: the GI50 with SF-295 CNS is 1.41 µM; in the experiment on RPMI-8226 leukemia, 0.399 µM; in the experiment with SK-MEL-28 melanoma it was 1.67 µM; in the experiment with SN12C renal it was 0.841 µM; in the experiment with KM12 colon, 1.08 µM; in the experiment on TK-10 renal, 3.02 µM. Further, the GI50 with HCT-116 colon is 1.33 µM; with SNB-75 CNS, 0.255 µM; in the experiment on SK-OV-3 ovarian it was 1.47 µM. Moreover, the TGI was determined as 3.92 µM in the experiment on SF-295 CNS; 9.17 µM in the experiment on RPMI-8226 leukemia; 11.6 µM with SK-MEL-28 melanoma; 3.47 µM in the experiment with SN12C renal; 12.8 µM with KM12 colon; 6.94 µM in the experiment on TK-10 renal. For the same compound, the TGI with HCT-116 colon was determined as 10.4 µM; in the experiment on SNB-75 CNS it was 0.549 µM; with SK-OV-3 ovarian, 5.8 µM.

Regarding `CC1=C2[C@@H](c3ccccc3)C3C=CC2(c2ccccc23)N(C(=O)Nc2cccc3ccccc23)C1=O` (stereo not given in full), the TGI with SF-295 CNS, in the experiment with RPMI-8226 leukemia, with SK-MEL-28 melanoma, in the experiment on SN12C renal, in the experiment with KM12 colon and in the experiment with HCT-116 colon was greater than 100 µM each time. The TGI in the experiment on SK-OV-3 ovarian and in the experiment on HL-60(TB) leukemia was greater than 100 µM throughout.

Turning to `CCOC(=O)NN(C(=O)OCC)C(C(=O)c1ccc(Cl)cc1)=C1NCCN1`, the TGI with SF-295 CNS, with SK-MEL-28 melanoma, with SN12C renal, with KM12 colon, in the experiment on TK-10 renal and in the experiment with HCT-116 colon was greater than 100 µM in each case. The TGI in the experiment on SNB-75 CNS, with SK-OV-3 ovarian and in the experiment with HL-60(TB) leukemia was greater than 100 µM throughout.

Take `C[C@]12CC/C(=N\OC(=O)Nc3ccccc3)C=C1CC[C@@H]1C2CC[C@@]2(C)C1CC[C@@H]2OC(=O)Nc1ccccc1` (stereo not given in full): the TGI is greater than 100 µM with SF-295 CNS; greater than 100 µM with RPMI-8226 leukemia; 30.8 µM in the experiment on SN12C renal; greater than 100 µM in the experiment on KM12 colon; greater than 100 µM in the experiment with TK-10 renal; greater than 100 µM with HCT-116 colon. In addition, the TGI in the experiment on SNB-75 CNS, in the experiment with SK-OV-3 ovarian and in the experiment on HL-60(TB) leukemia was greater than 100 µM throughout.

With `CS(=O)(=O)N(CC(=O)O)Cc1ccccc1`, the TGI in the experiment with SF-295 CNS, in the experiment on RPMI-8226 leukemia, in the experiment on SK-MEL-28 melanoma, in the experiment on SN12C renal, in the experiment with KM12 colon and with TK-10 renal was greater than 100 µM throughout. Besides, the TGI with HCT-116 colon, with SNB-75 CNS and in the experiment on SK-OV-3 ovarian was greater than 100 µM throughout.

With `O=C(CC(=O)c1cccc([N+](=O)[O-])c1)C(=O)Nc1nc([N+](=O)[O-])cs1`, the TGI with SF-295 CNS, with RPMI-8226 leukemia, in the experiment with SK-MEL-28 melanoma, in the experiment on SN12C renal, with KM12 colon and in the experiment on TK-10 renal was greater than 100 µM each time. The TGI with HCT-116 colon, with SK-OV-3 ovarian and in the experiment with HL-60(TB) leukemia was greater than 100 µM in each case.

In the case of `C/C=C1\C[C@@H]2C(OC)Nc3cc(O)c(OC)cc3C(=O)N2C1` (stereo not given in full), the GI50 in the experiment with SF-295 CNS is 0.00328 µM; in the experiment on RPMI-8226 leukemia, 0.00269 µM; in the experiment with SN12C renal it was 0.00625 µM; in the experiment with HCT-116 colon, 0.0172 µM; in the experiment on SNB-75 CNS, 0.00482 µM; in the experiment with SK-OV-3 ovarian, 0.00827 µM. In addition, the GI50 in the experiment with HL-60(TB) leukemia was 0.00226 µM. For the same compound, the TGI in the experiment on SF-295 CNS was 0.467 µM and 1.43 µM; in the experiment with SK-MEL-28 melanoma it was 0.0295 µM and 0.0176 µM; in the experiment on KM12 colon, 0.34 µM and 0.0408 µM; in the experiment with SNB-75 CNS it was 0.0205 µM and 0.0167 µM; in the experiment on SK-OV-3 ovarian, 2.37 µM; in the experiment with HL-60(TB) leukemia it was 0.216 µM and 0.0852 µM.

Consider `CC(=O)OCc1c(C)c2ccccc2n1C(C)=O`, for which the TGI with SF-295 CNS, in the experiment on SK-MEL-28 melanoma, in the experiment on SN12C renal, with KM12 colon, in the experiment on TK-10 renal and with HCT-116 colon was greater than 100 µM in each case. Also, the results for the TGI in the experiment with SNB-75 CNS, with SK-OV-3 ovarian and with HL-60(TB) leukemia were greater than 100 µM, greater than 100 µM and 66.9 µM, respectively.

In the case of `COc1ccc2c([nH]c3cc(O)c(C)cc32)c1CC=C(C)C`, the TGI in the experiment with RPMI-8226 leukemia was greater than 25 µM; in the experiment on SK-MEL-28 melanoma it was greater than 25 µM; in the experiment with SN12C renal, 10.8 µM; with HCT-116 colon, greater than 25 µM; in the experiment with SK-OV-3 ovarian, greater than 25 µM; with HL-60(TB) leukemia it was greater than 25 µM. For the same compound, the GI50 with HCT-116 colon was 11.9 µM; with HL-60(TB) leukemia it was 7.94 µM.

As to `N=C(N)c1ccc(-c2ccc(-c3ccc(Cl)c(Cl)c3)o2)nc1`, the GI50 with RPMI-8226 leukemia is 2.33 µM; in the experiment with SK-MEL-28 melanoma it was 1.76 µM; in the experiment with SN12C renal, 1.74 µM; with TK-10 renal, 2.03 µM; in the experiment on SNB-75 CNS it was 1.35 µM; in the experiment with SK-OV-3 ovarian it was 1.53 µM. In the experiment on HL-60(TB) leukemia, the GI50 was 2.24 µM. Further, the TGI in the experiment with RPMI-8226 leukemia was 5.19 µM; in the experiment on SK-MEL-28 melanoma, 3.34 µM; with SN12C renal, 3.52 µM; in the experiment with TK-10 renal, 3.77 µM; in the experiment on SNB-75 CNS, 2.69 µM; in the experiment on SK-OV-3 ovarian, 3.23 µM. For the same compound, in the experiment with HL-60(TB) leukemia, the TGI worked out at 5.09 µM.

Consider `CN1CCc2cc(O)c3cc2C1Cc1ccc(cc1)Oc1cc(ccc1O)CC1c2c(cc4c(c2O3)OCO4)CCN1C` (stereo not given), for which the TGI with SF-295 CNS was 43.6 µM; with SK-MEL-28 melanoma, 46.4 µM; in the experiment with SN12C renal, greater than 100 µM; in the experiment on KM12 colon it was greater than 100 µM; in the experiment on TK-10 renal, 92.2 µM; in the experiment on HCT-116 colon it was greater than 100 µM. The TGI came out at 39.4 µM in the experiment with SNB-75 CNS and 38.8 µM in the experiment on HL-60(TB) leukemia.

Take `O=C1C(Cl)=C(Nc2cccc(O)c2)C(=O)N1c1ccc(Cl)cc1Cl`: the GI50 is 27.2 µM in the experiment with SF-295 CNS; 7.55 µM in the experiment with RPMI-8226 leukemia; 60.9 µM in the experiment with SK-MEL-28 melanoma; 17.1 µM in the experiment with SN12C renal; 38.8 µM in the experiment with KM12 colon; greater than 100 µM in the experiment on TK-10 renal. Besides, the GI50 in the experiment on HCT-116 colon was 24.3 µM; with SK-OV-3 ovarian, 40.4 µM. Besides, the TGI was 86 µM with SF-295 CNS; 30.7 µM in the experiment on RPMI-8226 leukemia; greater than 100 µM in the experiment on SK-MEL-28 melanoma; 35.9 µM in the experiment on SN12C renal; greater than 100 µM in the experiment with KM12 colon; greater than 100 µM in the experiment with TK-10 renal. In addition, the TGI is 97.6 µM with HCT-116 colon and greater than 100 µM with SK-OV-3 ovarian.
